Measurements from patent publication US10550116B2, “Fused bicyclic heterocycle derivatives as pesticides” (BAYER CROPSCIENCE AKTIENGESELLSCHAFT, priority 2015, dated 2020).

What was measured:
Ctenocephalides felis [1] = experiment: Ctenocephalides felis in vitro contact test with adult cat fleas; assay type: in vivo; conditions: application rate 5 μg/cm^2 (=500 g/ha), after 48 h
Method: For the coating of the test tubes, 9 mg of active ingredient are first dissolved in 1 ml of acetone p.a. and then diluted to the desired concentration with acetone p.a. 250 μl of the solution are distributed homogeneously on the inner walls and the base of a 25 ml test tube by turning and rocking on an orbital shaker (rocking rotation at 30 rpm for 2 h). With 900 ppm active ingredient solution and internal surface area 44.7 cm^2, given homogeneous distribution, an area-based dose of 5 μg/cm^2 is achieved. After the solvent has evaporated off, the tubes are populated with 5-10 adult cat fleas (Ctenocephalides felis), sealed with a perforated plastic lid and incubated in a horizontal position at room temperature and ambient humidity. After 48 h, efficacy is determined. To this end, the test tubes are stood upright and the fleas are knocked to the base of the tube. Fleas which remain motionless at the base or move in an uncoordinated manner are considered to be dead or moribund. […] 100% efficacy means that all the fleas were dead or moribund. 0% efficacy means that no fleas were harmed.

Ctenocephalides felis [2] = experiment: Ctenocephalides felis oral test; assay type: in vivo; conditions: 100 ppm in citrated cattle blood; adult cat fleas; after 2 days
Method: For the purpose of production of a suitable active ingredient preparation, 10 mg of active ingredient are mixed with 0.5 ml of dimethyl sulphoxide. Dilution with citrated cattle blood gives the desired concentration. About 20 unfed adult cat fleas (Ctenocephalides felis) are placed into a chamber which is closed at the top and bottom with gauze. A metal cylinder whose bottom end is closed with parafilm is placed onto the chamber. The cylinder contains the blood/active ingredient preparation, which can be imbibed by the fleas through the parafilm membrane. After 2 days, the kill in % is determined. 100% means that all of the fleas have been killed; 0% means that none of the fleas have been killed.

Lucilia cuprina = Lucilia cuprina test; assay type: in vivo; conditions: 100 ppm; L1 larvae; after 2 days
Method: To produce a suitable active ingredient preparation, 10 mg of active ingredient are mixed with 0.5 ml of dimethyl sulphoxide, and the concentrate is diluted with water to the desired concentration. About 20 L1 larvae of the Australian sheep blowfly (Lucilia cuprina) are transferred into a test vessel containing minced horsemeat and the active ingredient preparation of the desired concentration. After 2 days, the kill in % is determined. 100% means that all the larvae have been killed; 0% means that no larvae have been killed.

Musca domestica = Musca domestica test; assay type: in vivo; conditions: 4 ppm; adult houseflies; after 2 days
Method: To produce a suitable active ingredient preparation, 10 mg of active ingredient are mixed with 0.5 ml of dimethyl sulphoxide, and the concentrate is diluted with water to the desired concentration. Vessels containing a sponge treated with sugar solution and the active ingredient preparation of the desired concentration are populated with 10 adult houseflies (Musca domestica). After 2 days, the kill in % is determined. 100% means that all of the flies have been killed; 0% means that none of the flies have been killed.

Meloidogyne incognita = Meloidogyne incognita test; assay type: in vivo; conditions: 20 ppm; lettuce; after 14 days
Method: To produce a suitable preparation of active ingredient, 1 part by weight of active ingredient is mixed with the stated amount of solvent and the concentrate is diluted with water to the desired concentration. Vessels are filled with sand, active ingredient solution, an egg/larvae suspension of the southern root-knot nematode (Meloidogyne incognita) and lettuce seeds. The lettuce seeds germinate and the plants develop. The galls develop on the roots. After 14 days, the nematicidal efficacy in % is determined by the formation of galls. 100% means that no galls were found; 0% means that the number of galls on the treated plants corresponds to the untreated control.

Myzus persicae = Myzus persicae spray test; assay type: in vivo; conditions: foliar, 100 g/ha, Chinese cabbage leaf discs, after 5-6 days, read-out: efficacy
Method: (§1) To produce a suitable active ingredient preparation, 1 part by weight of active ingredient is dissolved with the stated parts by weight of solvent and made up with water containing an emulsifier concentration of 1000 ppm until the desired concentration is attained. To produce further test concentrations, the preparation is diluted with emulsifier-containing water. Discs of Chinese cabbage leaves (Brassica pekinensis) infested by all stages of the green peach aphid (Myzus persicae) are sprayed with an active ingredient preparation of the desired concentration. After 5-6 days, the efficacy in % is determined. 100% means that all the aphids have been killed; 0% means that no aphids have been killed.

Phaedon cochleariae = Phaedon cochleariae spray test; assay type: in vivo; conditions: foliar, 168 h, 500 g/ha, larvae on Chinese cabbage leaf discs, after 7 days, read-out: efficacy
Method: as §1, with “pekinensis)” for “pekinensis) infested by all stages of the green peach aphid (Myzus persicae)”, “concentration and, after drying, populated with larvae of the mustard beetle (Phaedon cochleariae).” for “concentration.”, “7” for “5-6”, “beetle larvae” for “aphids”

Spodoptera frugiperda = Spodoptera frugiperda spray test; assay type: in vivo; conditions: foliar, 168 h, 500 g/ha, caterpillars on maize leaf discs, after 7 days, read-out: efficacy
Method: To produce a suitable active ingredient preparation, 1 part by weight of active ingredient is dissolved with the stated parts by weight of solvent and made up with water containing an emulsifier concentration of 1000 ppm until the desired concentration is attained. To produce further test concentrations, the preparation is diluted with emulsifier-containing water. Leaf discs of maize (Zea mays) are sprayed with an active ingredient preparation of the desired concentration and, after drying, populated with caterpillars of the armyworm (Spodoptera frugiperda). After 7 days, the efficacy in % is determined. 100% means that all the caterpillars have been killed; 0% means that no caterpillar has been killed.

[3] = log P by HPLC on reversed-phase column (EEC Directive 79/831 Annex V.A8); assay type: physicochemical; conditions: reversed-phase C18 HPLC column; pH 7.8, aqueous ammonium hydrogencarbonate/acetonitrile; 55° C.; read-out: log P (neutral)
Method: The log P values are measured according to EEC Directive 79/831 Annex V.A8 by HPLC (high-performance liquid chromatography) on a reversed-phase column (C 18). Temperature: 55° C. The LC-MS determination in the acidic range is effected at pH 2.7 using 0.1% aqueous formic acid and acetonitrile (contains 0.1% formic acid) as eluents; linear gradient from 10% acetonitrile to 95% acetonitrile. Called log P (HCOOH) in the table. LC-MS determination in the neutral range is effected at pH 7.8 with 0.001 molar aqueous ammonium hydrogencarbonate solution and acetonitrile as eluents; linear gradient from 10% acetonitrile to 95% acetonitrile. Called log P (neutral) in the table. Calibration is carried out using unbranched alkan-2-ones (having 3 to 16 carbon atoms) with known log P values (log P values determined on the basis of the retention times by linear interpolation between two successive alkanones).

## CCS(=O)(=O)c1cc2ccccc2nc1-c1nc2cc(C(F)(F)F)ncc2n1C [Example I-1, 3-Ethylsulphonyl-2-[3-methyl-6-(trifluoromethyl)imidazo[4,5-c]pyridin-2-yl]quinoline]
Ctenocephalides felis [1]
  efficacy: 100%
Ctenocephalides felis [2]
  efficacy (kill): 100%
Lucilia cuprina
  efficacy (kill): 100%
Musca domestica
  efficacy (kill): 75%
Meloidogyne incognita
  nematicidal efficacy (formation of galls): 70%
Myzus persicae
  pest or weed control at 100 g/ha: 90%
Phaedon cochleariae
  pest or weed control at 500 g/ha: 100%
Spodoptera frugiperda
  pest or weed control at 500 g/ha: 100%
[3]
  chromatographic logP: 2.75
